Test [1] is filed under the species Homo sapiens. Kind of test: Selectivity ratio of EC50 for TGR5 S270A mutant (unknown origin) to EC50 for wild type TGR5 (unknown origin).
The species named for test [2] is Homo sapiens. Kind of test: Selectivity ratio of EC50 for TGR5 Y89F mutant (unknown origin) to EC50 for wild type TGR5 (unknown origin).
For test [3], the species on record is Homo sapiens. Briefly: Selectivity ratio of EC50 for TGR5 Y89A mutant (unknown origin) to EC50 for wild type TGR5 (unknown origin).
Test [4] has as its target T1, G-protein coupled bile acid receptor 1 (Homo sapiens, UniProt Q8TDU6).
T1 sequence (Q8TDU6 whole entry): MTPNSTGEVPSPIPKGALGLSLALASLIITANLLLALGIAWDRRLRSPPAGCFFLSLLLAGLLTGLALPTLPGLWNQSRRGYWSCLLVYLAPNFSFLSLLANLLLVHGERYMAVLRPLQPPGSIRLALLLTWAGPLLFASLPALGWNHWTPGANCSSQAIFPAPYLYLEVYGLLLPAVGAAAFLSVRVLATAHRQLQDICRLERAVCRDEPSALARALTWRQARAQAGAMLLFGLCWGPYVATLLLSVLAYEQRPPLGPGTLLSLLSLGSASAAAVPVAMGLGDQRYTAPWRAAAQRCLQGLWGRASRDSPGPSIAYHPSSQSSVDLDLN
Kind of test: Agonist activity at wild type TGR5 (unknown origin).

The species entered for test [5] is Homo sapiens. Briefly: Selectivity ratio of EC50 for TGR5 N93D mutant (unknown origin) to EC50 for wild type TGR5 (unknown origin).

Bounds are passed on as bounds.

Consider `CC[C@H]1[C@@H](O)[C@@H]2[C@H](CC[C@]3(C)[C@@H]([C@H](C)CCN)CC[C@@H]23)[C@@]2(C)CC[C@@H](O)C[C@@H]12`, for which the Ratio EC50 was greater than 1000 in the test filed under Homo sapiens [1], 1.7 in the test listed under Homo sapiens [2], greater than 1000 in the test filed under Homo sapiens [3] and greater than 1000 in the test listed under Homo sapiens [5]. For the same compound, the EC50 (commonly the midpoint of the concentration-response curve) in test [4] is 1.32 µM.
